TGI and GI50 data for ten compounds are collected here from PubChem BioAssay (NCI).

What all share (experiment): NCI tumour cell line growth inhibition, 48 h
Assay [1] concerns A549 NSCLC.
In assay [2] the test system is CAKI-1 renal.
For assay [3], the system named is HCT-116 colon.
The subject of assay [4] is KM20L2 colon.
Assay [5] deals with NCI/ADR-RES ovarian.
Assay [6] concerns OVCAR-4 ovarian.
The subject of assay [7] is OVCAR-5 ovarian.
Assay [8] deals with SK-OV-3 ovarian.
In assay [9] the test system is SNB-78 CNS.
In assay [10] the test system is UO-31 renal.

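Test compounds were applied to cells in 96-well plates for 48 hours at 5 doses. GI50 is the concentration that inhibits growth by half. TGI denotes the concentration required for complete inhibition of growth.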

For the compound `CN1CCN(C)C12C=c1ccccc1=CC21CC1`, the TGI in assay [1] is more than 100 µM; in assay [2], more than 100 µM; in assay [3] it was 56.9 µM; in assay [4] it was more than 58.2 µM; in assay [5], more than 100 µM; in [6] it was more than 100 µM. In addition, the TGI in assay [7], in [8], in [9] and in assay [10] was more than 100 µM throughout.
Consider `O=c1/c(=C/c2ccco2)sc2nc3ccccc3n12`, for which the GI50 in assay [1] was more than 100 µM; in assay [2] it was more than 100000 nM; in [3] it was more than 100000 nM; in assay [6], more than 100000 nM; in [9] it was more than 100000 nM. Also, the TGI is more than 100 µM in assay [1]; more than 100 µM in [2]; more than 100 µM in assay [3]; more than 10 µM in assay [4]; more than 100 µM in assay [6]; more than 10 µM in assay [7]. The TGI was more than 100 µM in [8], more than 100 µM in assay [9] and more than 10 µM in assay [10].
For the compound `O=C1CCC(=O)N2CCCCN12`, the TGI in assay [1], in assay [2], in assay [3], in assay [4], in assay [6] and in [7] was more than 100 µM throughout. Besides, the TGI in [8], in [9] and in [10] was more than 100 µM in each case.
As for `O=C1/C(=C/c2ccccc2)CNC/C1=C\c1ccccc1`, the TGI in assay [1] turned out to be 7.63 µM; in assay [2], 17.6 µM; in assay [3] it was 0.415 µM; in assay [4] it was 3.09 µM; in assay [6] it was 2.9 µM; in assay [7], 6.21 µM. For the same compound, the results for the TGI in [8], in assay [9] and in assay [10] were 6.36 µM, 41.8 µM and 3.87 µM, respectively.
Turning to `O=C(c1ccccc1)c1nnc(C(=O)c2ccccc2)nn1`, the TGI in assay [1], in [2], in assay [3], in assay [4], in assay [6] and in assay [7] was more than 344 µM in each case. Also, the TGI in [8], in assay [9] and in assay [10] was more than 344 µM throughout.
On to `CC[CH2][Sn]([CH2]CC)([O]C(=O)c1cccnc1SC)[O][Sn]([CH2]CC)([CH2]CC)[O]C(=O)c1cccnc1SC`, for which the GI50 is 3.2 µM in assay [1]; 266 nM in [2]; 452 nM in [3]; 775 nM in assay [4]; 1490 nM in [5]; 1030 nM in assay [6]. Besides, the GI50 in assay [7] is 2090 nM; in assay [8], 1530 nM; in [9], 138 nM; in assay [10], 844 nM. The TGI in [1] is 6.24 µM; in [2], 0.801 µM; in [3], 1.48 µM; in assay [4] it was 2.11 µM; in assay [5] it was 3.24 µM; in assay [6], 2.34 µM. For the same compound, the TGI was 3.64 µM in [7], 3.61 µM in assay [8], 1.14 µM in assay [9] and 2.14 µM in assay [10].
On to `COC12C=C(C)C(CC1)CC2C(=O)O` (configuration not stated), for which the TGI in assay [1], in assay [2], in assay [3], in [4], in assay [6] and in assay [7] was more than 100 µM each time. In addition, the TGI in assay [8], in assay [9] and in [10] was more than 100 µM in each case.
With `Brc1cccc(C=NC23CC4CC(CC(C4)C2)C3)c1`, the TGI in assay [1], in [2], in [3], in [4], in [6] and in assay [7] was more than 100 µM in each case. In addition, the TGI in assay [8], in [9] and in [10] was more than 100 µM each time.
Turning to `COC(=O)C1Cc2c(n(Cc3ccccc3)c3ccccc23)C(CCC(=O)O)N1C(C)C` (configuration not stated), the TGI in [1], in assay [2], in assay [3], in [4], in [6] and in assay [7] was more than 100 µM in each case. In addition, the TGI in assay [8], in [9] and in assay [10] was more than 100 µM in each case.
For `O=C(/C=C/c1c(O)ccc2ccccc12)c1cccc(O)c1`, the TGI in assay [1], in [2], in [3], in [4], in assay [6] and in [7] was more than 100 µM each time. Also, the TGI in assay [8], in [9] and in [10] was more than 100 µM each time.
